This is an account of results in PMC10706804, “Synthesis and Characterization of a New Class of Chromene-Azo Sulfonamide Hybrids as Promising Anticancer Candidates with the Exploration of Their EGFR, hCAII, and MMP-2 Inhibitors Based on Molecular Docking Assays” (International Journal of Molecular Sciences, 2023).

T1 sequence (P00921 whole entry): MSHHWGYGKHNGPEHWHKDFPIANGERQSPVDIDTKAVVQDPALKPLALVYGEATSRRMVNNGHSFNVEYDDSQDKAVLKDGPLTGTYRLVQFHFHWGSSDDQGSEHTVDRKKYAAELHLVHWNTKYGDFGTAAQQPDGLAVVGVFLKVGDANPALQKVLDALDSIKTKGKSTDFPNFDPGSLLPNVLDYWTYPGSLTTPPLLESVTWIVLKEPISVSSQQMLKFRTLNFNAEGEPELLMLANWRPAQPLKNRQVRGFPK

For one test, the system named is human liver carcinoma (HepG-2). In words: MTT cytotoxicity, HepG-2. It is filed as cell-based. The following applies: HepG-2 cells. An excerpt:
(§1) Three human tumorous cell lines—human colon carcinoma (HCT-116), human liver carcinoma (HepG-2), and human breast adenocarcinoma (MCF-7)—were subjected to cytotoxic behavior, employing the MTT analysis. Moreover, a normotoxicity assessment was employed against normal Vero cell line (African Green Monkey Kidney cells) for selected active compounds to determine their therapeutic safety. […] The inhibitory performance of derivatives 1a–e, 2a–e, 7a–g, 8, and 11a–e, and its derived relation to the cell proliferation of these three cancers, are described in Table 1 and Figure 2. […] Characteristically, the inhibitory activity was enhanced via incorporating the azo moieties in compounds 2a–b.
(§2) The cytotoxic activity was appraised using the 3-(4,5-dimethylthiazol-2-yl)-2,5-diphenyl-tetrazolium bromide (MTT) colorimetric assay as reported previously.
On to `CCOC(=O)C1=C(N)Oc2cc(O)c(/N=N/c3ccc(S(N)(=O)=O)cc3)cc2C1c1ccc([N+](=O)[O-])cc1` (stereo not shown) [7d], for which 34.9 ± 2.79 µM corresponded to half-maximal inhibition (IC50).

`CCOC(=O)C1=C(N)Oc2cc(O)c(/N=N/c3ccc(S(N)(=O)=O)cc3)cc2C1c1ccc(OC)cc1` (stereo not shown) [7c] registered an IC50 of 51.8 ± 1.02 µM.

In the case of `CCOC(=O)C1=C(N)Oc2cc(O)c(/N=N/c3ccc(S(N)(=O)=O)cc3)cc2C1c1ccc(Cl)cc1Cl` (stereo not shown) [7g], the IC50 is 1.63 ± 2.36 µM.

In turn, `N.N.[Cl][Pt][Cl]` [Cisplatin, reference compound] had an IC50 of 10.9 ± 0.19 µM.

`CCOC(=O)C1=C(N)Oc2cc(O)c(/N=N/c3ccc(S(N)(=O)=O)cc3)cc2C1c1ccc(C)cc1` (stereo not shown) [7b] returned a 50% inhibitory concentration (IC50) of 45.7 ± 2.88 µM.

The test is the same for the next values; noted with them: Homo sapiens, HepG2, HepG-2 cells.
`CCOC(=O)C1=C(N)Oc2cc(O)c(/N=N/c3ccc(S(N)(=O)=O)cc3)cc2C1c1ccc([N+](=O)[O-])cc1` (stereo not shown) [7d] showed an IC50 of 45.9 µM.

As for `COc1cccc2c1C(=O)c1c(O)c3c(c(O)c1C2=O)C[C@@](O)(C(=O)CO)C[C@@H]3O[C@H]1C[C@H](N)[C@H](O)[C@H](C)O1` [Doxorubicin, reference compound], the IC50 came to 0.66 ± 0.02 µM.

`CCOC(=O)C1=C(N)Oc2cc(O)c(/N=N/c3ccc(S(N)(=O)=O)cc3)cc2C1c1ccc(OC)cc1` (stereo not shown) [7c]: it took 34.9 µM to reach half-maximal inhibition (IC50).

The compound `CCOC(=O)C1=C(N)Oc2cc(O)c(/N=N/c3ccc(S(N)(=O)=O)cc3)cc2C1c1ccc(Cl)cc1Cl` (stereo not shown) [7g] came in with a concentration for half-maximal inhibition (IC50) of 1.74 µM.

`CCOC(=O)C1=C(N/C(=C(/C#N)C(=O)OCC)c2ccc(C)cc2)Oc2cc(O)c(/N=N/c3ccc(S(=O)(=O)NC(C)=O)cc3)cc2C1c1ccc(C)cc1` (stereo not shown) [11b] had an IC50 of 147 ± 6.41 µM.

The compound `CCOC(=O)C1=C(N)Oc2cc(O)c(/N=N/c3ccc(S(N)(=O)=O)cc3)cc2C1c1ccc(F)cc1` (stereo not shown) [7e] returned a 50% inhibitory concentration (IC50) of 2.92 ± 3.52 µM.

In turn, `CCOC(=O)C1=C(N)Oc2cc(O)c(/N=N/c3ccc(S(N)(=O)=O)cc3)cc2C1c1ccc(C)cc1` (stereo not shown) [7b] yielded an IC50 of 51.9 µM.

For a further test, the system named is human colon carcinoma (HCT-116). Briefly: MTT cytotoxicity, HCT-116. It is filed as cell-based. Particulars: HCT-116 cells.
From the text: as §1, §2
`CCOC(=O)C1=C(N)Oc2cc(O)c(/N=N/c3ccc(S(N)(=O)=O)cc3)cc2C1c1ccc(Cl)cc1Cl` (stereo not shown) [7g]: the “IC50 (µM) HCT-116” value was “good potency”.

The compound `N.N.[Cl][Pt][Cl]` [Cisplatin, reference compound] had a 50% inhibitory concentration (IC50) of 8.36 ± 0.07 µM.

The test is the same for the next values; noted with them: Homo sapiens, HCT-116 cells.
Regarding `CCOC(=O)C1=C(N)Oc2cc(O)c(/N=N/c3ccc(S(N)(=O)=O)cc3)cc2C1c1ccc([N+](=O)[O-])cc1` (stereo not shown) [7d], the IC50 was determined as 114 ± 5.34 µM.

As to `COc1cccc2c1C(=O)c1c(O)c3c(c(O)c1C2=O)C[C@@](O)(C(=O)CO)C[C@@H]3O[C@H]1C[C@H](N)[C@H](O)[C@H](C)O1` [Doxorubicin, reference compound], the 50% inhibitory concentration (IC50) is 0.9 ± 0.07 µM.

For the compound `CCOC(=O)C1=C(N)Oc2cc(O)c(/N=N/c3ccc(S(N)(=O)=O)cc3)cc2C1c1ccc(OC)cc1` (stereo not shown) [7c], the IC50 amounted to 70.8 ± 1.85 µM.

`CCOC(=O)C1=C(N)Oc2cc(O)c(/N=N/c3ccc(S(N)(=O)=O)cc3)cc2C1c1ccc(Cl)cc1Cl` (stereo not shown) [7g] returned an IC50 of 1.74 ± 4.06 µM.

`CCOC(=O)C1=C(N/C(=C(/C#N)C(=O)OCC)c2ccc(C)cc2)Oc2cc(O)c(/N=N/c3ccc(S(=O)(=O)NC(C)=O)cc3)cc2C1c1ccc(C)cc1` (stereo not shown) [11b] had a half-inhibitory concentration (IC50) of 39.3 ± 2.63 µM.

For the compound `CCOC(=O)C1=C(N)Oc2cc(O)c(/N=N/c3ccc(S(N)(=O)=O)cc3)cc2C1c1ccc(F)cc1` (stereo not shown) [7e], the IC50 came out at 8 ± 3.45 µM.

The compound `CCOC(=O)C1=C(N)Oc2cc(O)c(/N=N/c3ccc(S(N)(=O)=O)cc3)cc2C1c1ccc(C)cc1` (stereo not shown) [7b] gave a 50% inhibitory concentration (IC50) of 17.3 ± 4.29 µM.

A further test relates to human breast adenocarcinoma (MCF-7). In words: MTT cytotoxicity, MCF-7. It counts as cell-based. Particulars: Homo sapiens, MCF7, MCF-7 cells.
From the text: as §1, §2
`CCOC(=O)C1=C(N)Oc2cc(O)c(/N=N/c3ccc(S(N)(=O)=O)cc3)cc2C1c1ccc([N+](=O)[O-])cc1` (stereo not shown) [7d] returned a 50% inhibitory concentration (IC50) of 97.9 ± 3.08 µM.

`COc1cccc2c1C(=O)c1c(O)c3c(c(O)c1C2=O)C[C@@](O)(C(=O)CO)C[C@@H]3O[C@H]1C[C@H](N)[C@H](O)[C@H](C)O1` [Doxorubicin, reference compound]: it took 0.64 ± 0.03 µM to reach half-maximal inhibition (IC50).

Consider `CCOC(=O)C1=C(N)Oc2cc(O)c(/N=N/c3ccc(S(N)(=O)=O)cc3)cc2C1c1ccc(OC)cc1` (stereo not shown) [7c], for which the half-maximal inhibitory concentration (IC50) worked out at 104 ± 2.65 µM.

For `CCOC(=O)C1=C(N)Oc2cc(O)c(/N=N/c3ccc(S(N)(=O)=O)cc3)cc2C1c1ccc(Cl)cc1Cl` (stereo not shown) [7g], the IC50 was 1.72 ± 2.5 µM.

`CCOC(=O)C1=C(N/C(=C(/C#N)C(=O)OCC)c2ccc(C)cc2)Oc2cc(O)c(/N=N/c3ccc(S(=O)(=O)NC(C)=O)cc3)cc2C1c1ccc(C)cc1` (stereo not shown) [11b] gave an IC50 of 66 ± 3.91 µM.

As to `CCOC(=O)C1=C(N)Oc2cc(O)c(/N=N/c3ccc(S(N)(=O)=O)cc3)cc2C1c1ccc(F)cc1` (stereo not shown) [7e], the IC50 worked out at 6.15 ± 1.23 µM.

Compound `CCOC(=O)C1=C(N)Oc2cc(O)c(/N=N/c3ccc(S(N)(=O)=O)cc3)cc2C1c1ccc(C)cc1` (stereo not shown) [7b] displayed an IC50 of 29.5 ± 3.29 µM.

The test is the same for the next values; noted with them: MCF-7 cells.
With `N.N.[Cl][Pt][Cl]` [Cisplatin, reference compound], the IC50 was 14.66 ± 0.03 µM.

Another test addresses T1, cytosolic hCA II (Bos taurus, UniProt P00921).
T1 construct: purchased Sigma–Aldrich C2624
In words: CA-II inhibition assay (esterase activity, 4-NPA). It is filed as biochemical, bovine. The following applies: reduction in esterase activity, 4-NPA substrate; read-out: IC50 against hCA II. As to the method: The CA-II inhibition assay for the analyzed molecules was performed based on the measurement of the reduction in esterase activity on the substrate p-nitrophenyl acetate (4-NPA). Briefly, the total mixture volume was 200 µL in a well containing 140 µL (20 mM HEPES) Tris buffer (pH 7.4), 20 µL of the enzyme (from bovine, Sigma–Aldrich, C2624, St. Louis, MO, USA), and 20 µL (0.5 mg/mL in DMSO) of the investigated derivatives, which were mixed and incubated at 25 °C for 15 min. […] The results, attained after the reactions were completed in triplicate, were quantified by the equation given below. The percent inhibition for each sample was calculated as Inhibition (%) = [(C − T)/C] × 100, where C (i.e., control) = total enzyme activity without inhibitor and T (i.e., test sample) = activity in the presence of test compound.
Regarding `CCOC(=O)C1=C(N)Oc2cc(O)c(/N=N/c3ccc(S(N)(=O)=O)cc3)cc2C1c1ccc(Cl)cc1Cl` (stereo not shown) [7g], the 50% inhibitory concentration (IC50) came out at 314 µM.

On to `CCOC(=O)C1=C(N)Oc2cc(O)c(/N=N/c3ccc(S(N)(=O)=O)cc3)cc2C1c1ccc(C)cc1` (stereo not shown) [7b], for which the IC50 was 711 µM.
